Source: patent publication US20140263071A1, “METHOD FOR COLLECTING METALS” (CHEMEC OY AB, priority 2011, published 2014)
Marks after values point to notes of the source that are not given here.

Legend:
[1] = Effect of temperature on expulsion percent, Pb^2+ spiked TS 5, 1a 1.0 g/100 ml, 24 h (Example 12)
Method: (§1) A test solution containing 1-15 mg/l of Al^3+, Fe^2/3+, Mg^2+, Mn^2+, Ni^2+ and Zn^2+; 0.1-0.9 mg/l of Ca^2+ and Na^+; and trace amount of other Cr^3+, Co^2+, Cu^2+, Eu^3+, La^3+, Nd^3+, Y^3+, UO2^2+ and Nb^5+ cations were prepared.
Effect of temperature to selected metal expulsion per cents was tested using TS 5 with comlexation agent 1a. TS 5 (100 ml), spiked with known amounts of lead (Pb^2+) cations, was stirred with 1a (1.0 g) at selected temperature for 24 h followed by separation of 1a by filtration trough 0.2 μm syringe filter. Metal concentrations at 4° C., 7° C., 22° C., 30° C., 40° C. and 50° C. were determined by using ICP-AES analysis.

[2] = Separation of Cr(III) from Cr(VI) (Example 14); conditions: pH 4.0, 1a 100 mg
Method: A water solution (110 ml) containing known amount of single cationic element or elements, typically 0.5-200 ppm, was prepared from Merch Titrisol® standard solution. After adjusting pH by using acid (e.g. HCl or HNO3) or base (e.g. NaOH) to desired initial value, sample A (10 ml) was taken followed by adding 100 mg of selected solid complexation agent. The mixture was stirred at room temperature for 24 h and sample B (10 ml) was taken. Samples A and B were filtrated separately trough 0.2 μm syringe filter and the concentration of the studied element or elements in both solution was determined by using atomic absorption spectrophotometer. The expulsion percent was determined from the concentration differences between the sample solutions A and B.
An aqueous solution (100 ml) containing 1.72 ppm of Cr(III) and 1.89 ppm of Cr(VI) was prepared from Merch Titrisol® standard solution and pH was adjusted to 4.0. Following the general procedure described earlier the mixture was treated with 1a (100 mg) and expulsion per for Cr(III) and Cr(VI) were calculated to be 97.0% and 0%, respectively.

[3] = Separation of silver with complexation agent by HCl elution (Example 20); conditions: for Concentration after 1a: mixture of Ag^+, 1a 10 g, 48 h; for End concentration in 1a: after HCl elutions; for Metals in 0.01M HCl: elution of loaded 1a with 0.01 M HCl (60 ml); for Metals in 0.1M HCl: elution of loaded 1a with 0.1 M HCl (60 ml); for Metals in 1M HCl: elution of loaded 1a with 1 M HCl (60 ml)
Method: A mixture of Cu(NO3)2×3H2O (20 ml, 0.1 M), AgNO3 (20 ml, 0.1 M), Fe(NO3)3 (20 ml, 0.1 M), water (40 ml) and 1a (10 g) were stirred for 48 h at room temperature. Solids were collected to sintered disc (porosity G-4), washed with water (60 ml) and eluted with 0.01 M (60 ml), 0.1 M (60 ml) and 1 M (60 ml) HCl solutions. Amounts of each metals in eluted HCl solutions were determined by AAS using standard procedures.

[4] = Collection of gold from TS 5 (Example 21); conditions: Au^3+ spiked TS 5, pH 3.0, 1a 5 g
Method: as §1
TS 5 (100 ml) was spiked with Au^3+ (87.7 mg/ml) Merch Titrisol® standard solution. After pH of the mixture was adjusted to 3.0 by HNO3 sample A was taken followed by adding 1a (5 g). The mixture was stirred at room temperature for 24 h and a sample B was taken. Samples A and B were filtrated separately trough 0.2 μm syringe filter and the concentration of selected element in both solution was determined by using ICP-AES method. The expulsion percent for selected elements were determined from the concentration differences between the samples A and B. Results of gold recovery from TS 5 is given in Table 15.

[5] = Purification of water draining through the dump site, TS 1 (Example 16); conditions: Mo^2+

Question: Which “Expulsion [%]” value ([1]; Al^3+, 4° C.) does the source give for `NCCCCCCCCCCC(O)(P(=O)(O)O)P(=O)(O)O` [Compound 1a, 11-Amino-1-hydroxyundecane-1,1-diyldiphosphonic acid] here?
Answer: 6.3%

Question: What about the “Expulsion [%]” value ([1]; Al^3+, 7° C.) of the same compound?
Answer: 15.4%

Question: What about the “Expulsion [%]” value ([1]; Al^3+, 22° C.) of the same compound?
Answer: 18.5%

Question: And the “Expulsion [%]” value ([1]; Al^3+, 30° C.)?
Answer: 14.6%

Question: And the “Expulsion [%]” value ([1]; Al^3+, 40° C.)?
Answer: 98.0%

Question: And the “Expulsion [%]” value ([1]; Al^3+, 50° C.)?
Answer: 97.6%

Question: What about the “Expulsion [%]” value ([1]; Ca^2+, 4° C.) of the same compound?
Answer: 0.0%

Question: What about the “Expulsion [%]” value ([1]; Ca^2+, 7° C.) of the same compound?
Answer: 0.0%

Question: What about the “Expulsion [%]” value ([1]; Ca^2+, 22° C.) of the same compound?
Answer: 9.4%

Question: And the “Expulsion [%]” value ([1]; Ca^2+, 30° C.)?
Answer: 10.0%

Question: What about the “Expulsion [%]” value ([1]; Ca^2+, 40° C.) of the same compound?
Answer: 63.5%

Question: And the “Expulsion [%]” value ([1]; Ca^2+, 50° C.)?
Answer: 71.2%

Question: What about the “Expulsion [%]” value ([1]; Cd^2+, 4° C.) of the same compound?
Answer: 16.1%

Question: What about the “Expulsion [%]” value ([1]; Cd^2+, 7° C.) of the same compound?
Answer: 18.3%

Question: And the “Expulsion [%]” value ([1]; Cd^2+, 22° C.)?
Answer: 34.5%

Question: And the “Expulsion [%]” value ([1]; Cd^2+, 30° C.)?
Answer: 41.3%

Question: What about the “Expulsion [%]” value ([1]; Cd^2+, 40° C.) of the same compound?
Answer: 99.0%

Question: What about the “Expulsion [%]” value ([1]; Cd^2+, 50° C.) of the same compound?
Answer: 98.9%

Question: And the “Expulsion [%]” value ([1]; Fe^2/3+, 4° C.)?
Answer: 0.0%

Question: And the “Expulsion [%]” value ([1]; Fe^2/3+, 7° C.)?
Answer: 0.7%

Question: And the “Expulsion [%]” value ([1]; Fe^2/3+, 22° C.)?
Answer: 5.2%

Question: And the “Expulsion [%]” value ([1]; Fe^2/3+, 30° C.)?
Answer: 4.4%

Question: What about the “Expulsion [%]” value ([1]; Fe^2/3+, 40° C.) of the same compound?
Answer: 99.3%

Question: What about the “Expulsion [%]” value ([1]; Fe^2/3+, 50° C.) of the same compound?
Answer: ≥ 99.3^1%

Question: What about the “Expulsion [%]” value ([1]; Mg^2+, 4° C.) of the same compound?
Answer: 0.7%

Question: And the “Expulsion [%]” value ([1]; Mg^2+, 7° C.)?
Answer: 0.7%

Question: And the “Expulsion [%]” value ([1]; Mg^2+, 22° C.)?
Answer: 7.1%

Question: And the “Expulsion [%]” value ([1]; Mg^2+, 30° C.)?
Answer: 5.5%

Question: And the “Expulsion [%]” value ([1]; Mg^2+, 40° C.)?
Answer: ≥ 97.7^1%

Question: And the “Expulsion [%]” value ([1]; Mg^2+, 50° C.)?
Answer: ≥ 97.7^1%

Question: And the “Expulsion [%]” value ([1]; Mn^2+, 4° C.)?
Answer: 4.6%

Question: And the “Expulsion [%]” value ([1]; Mn^2+, 7° C.)?
Answer: 5.3%

Question: What about the “Expulsion [%]” value ([1]; Mn^2+, 22° C.) of the same compound?
Answer: 14.7%

Question: What about the “Expulsion [%]” value ([1]; Mn^2+, 30° C.) of the same compound?
Answer: 13.3%

Question: What about the “Expulsion [%]” value ([1]; Mn^2+, 40° C.) of the same compound?
Answer: ≥ 99.7^1%

Question: And the “Expulsion [%]” value ([1]; Mn^2+, 50° C.)?
Answer: ≥ 99.7^1%

Question: And the “Expulsion [%]” value ([1]; Ni^2+, 4° C.)?
Answer: 0.9%

Question: What about the “Expulsion [%]” value ([1]; Ni^2+, 7° C.) of the same compound?
Answer: 1.4%

Question: What about the “Expulsion [%]” value ([1]; Ni^2+, 22° C.) of the same compound?
Answer: 4.6%

Question: And the “Expulsion [%]” value ([1]; Ni^2+, 30° C.)?
Answer: 4.6%

Question: And the “Expulsion [%]” value ([1]; Ni^2+, 40° C.)?
Answer: 97.1%

Question: What about the “Expulsion [%]” value ([1]; Ni^2+, 50° C.) of the same compound?
Answer: 95.2%

Question: And the “Expulsion [%]” value ([1]; Pb^2+, 4° C.)?
Answer: ≥ 98.1^1%

Question: And the “Expulsion [%]” value ([1]; Pb^2+, 7° C.)?
Answer: ≥ 98.1^1%

Question: And the “Expulsion [%]” value ([1]; Pb^2+, 22° C.)?
Answer: ≥ 98.1^1%

Question: And the “Expulsion [%]” value ([1]; Pb^2+, 30° C.)?
Answer: ≥ 98.1^1%

Question: And the “Expulsion [%]” value ([1]; Pb^2+, 40° C.)?
Answer: ≥ 98.1^1%

Question: What about the “Expulsion [%]” value ([1]; Pb^2+, 50° C.) of the same compound?
Answer: ≥ 98.1^1%

Question: What about the “Expulsion [%]” value ([1]; Zn^2+, 4° C.) of the same compound?
Answer: 9.0%

Question: What about the “Expulsion [%]” value ([1]; Zn^2+, 7° C.) of the same compound?
Answer: 10.4%

Question: What about the “Expulsion [%]” value ([1]; Zn^2+, 22° C.) of the same compound?
Answer: 22.9%

Question: What about the “Expulsion [%]” value ([1]; Zn^2+, 30° C.) of the same compound?
Answer: 25.7%

Question: What about the “Expulsion [%]” value ([1]; Zn^2+, 40° C.) of the same compound?
Answer: 97.6%

Question: And the “Expulsion [%]” value ([1]; Zn^2+, 50° C.)?
Answer: 98.0%

Question: What about the “expulsion per cent for Cr(III)” value ([2]; 1.72 ppm Cr(III) with 1.89 ppm Cr(VI)) of the same compound?
Answer: 97.0%

Question: And the “expulsion per cent for Cr(VI)” value ([2]; 1.89 ppm Cr(VI) with 1.72 ppm Cr(III))?
Answer: 0%

Question: And the “Amounts of metals in 1a” value ([3]; Ag^+)?
Answer: 1320 mg/L

Question: And the “Concentration after 1a” value ([3]; Ag^+, initial 2050 mg/l, Cu^2+, Fe^3+)?
Answer: 730 mg/L

Question: What about the “End concentration in 1a” value ([3]; Ag^+) of the same compound?
Answer: 1300 mg/L

Question: And the “Metals in 0.01M HCl” value ([3]; Ag^+)?
Answer: 10 mg/L

Question: And the “Metals in 0.1M HCl” value ([3]; Ag^+)?
Answer: 0 mg/L

Question: And the “Metals in 1M HCl” value ([3]; Ag^+)?
Answer: 10 mg/L

Question: What about the “Amounts of metals in 1a” value ([3]; Cu^2+) of the same compound?
Answer: 210 mg/L

Question: What about the “Concentration after 1a” value ([3]; Cu^2+, initial 1310 mg/l, Cu^2+, Fe^3+) of the same compound?
Answer: 1100 mg/L

Question: What about the “End concentration in 1a” value ([3]; Cu^2+) of the same compound?
Answer: 0 mg/L

Question: What about the “Metals in 0.01M HCl” value ([3]; Cu^2+) of the same compound?
Answer: 0 mg/L

Question: What about the “Metals in 0.1M HCl” value ([3]; Cu^2+) of the same compound?
Answer: 10 mg/L

Question: What about the “Metals in 1M HCl” value ([3]; Cu^2+) of the same compound?
Answer: 200 mg/L

Question: And the “Amounts of metals in 1a” value ([3]; Fe^3+)?
Answer: 80 mg/L

Question: And the “Concentration after 1a” value ([3]; Fe^3+, initial 1040 mg/l, Cu^2+, Fe^3+)?
Answer: 960 mg/L

Question: And the “End concentration in 1a” value ([3]; Fe^3+)?
Answer: 0 mg/L

Question: What about the “Metals in 0.01M HCl” value ([3]; Fe^3+) of the same compound?
Answer: 10 mg/L

Question: What about the “Metals in 0.1M HCl” value ([3]; Fe^3+) of the same compound?
Answer: 10 mg/L

Question: And the “Metals in 1M HCl” value ([3]; Fe^3+)?
Answer: 60 mg/L

Question: And the “Expulsion [%]” value ([4]; Al^3+)?
Answer: 87.9%

Question: And the “Expulsion [%]” value ([4]; Au^3+)?
Answer: 65.0^1) %

Question: What about the “Expulsion [%]” value ([4]; Cr^3+) of the same compound?
Answer: 2.6%

Question: And the “Expulsion [%]” value ([4]; Fe^2/3+)?
Answer: ≥ 96.6^2) %

Question: What about the “Expulsion [%]” value ([4]; Mg^2+) of the same compound?
Answer: 0%

Question: What about the “Expulsion [%]” value ([4]; Mn^2+) of the same compound?
Answer: 0%

Question: What about the “Expulsion [%]” value ([4]; Ni^2+) of the same compound?
Answer: 1.3%

Question: What about the “Expulsion [%]” value ([4]; Zn^2+) of the same compound?
Answer: 1.4%

Question: And the “Expulsion [%]” value ([5]; Spiked TS 1)?
Answer: ≥ 52^2) %

Question: What about the “Expulsion [%]” value ([5]; TS 1) of the same compound?
Answer: ≥ 58^2) %
